# Laboratory results reported in patent US20160113895A1, “Novel Use of Adapalene in Treating Esophageal Cancer and Gastrointestinal Stromal Tumor” (Biodelight Biotech Inc., priority 2013, published 2016).
# What was measured:
# Assay type in all cases: cell-based, human
# H460 [1] = assay: 2D cell proliferation assay (Alamar Blue), H460; settings: Homo sapiens, NCI-H460; 2D, H460, 72 h; read-out: IC50
# Text: Nsl-8 was subjected to 2D cell proliferation assays using four NSCLC cell lines (A549 (human adenocarcinomic alveolar basal epithelial cells with k-ras gene mutation), H1299 (human non-small cell lung carcinoma cell line with p53 mutation), H460 (human non-small cell lung carcinoma cell line with k-ras gene mutation), and HCC827 (human NSCLC cells with EGFR mutation of deletion from E746 to A750)) and the results were presented in Table 2. There were eight concentrations used for each drug for determining its IC50. […]. Actinomycin D was a chemotherapeutic drug simply used as a quality control for all the experiments.
# In the 2D cell proliferation assay, cells were cultured in DMEM containing 10% FCS and Penicillin/Streptomycin. For the assays, cells were seeded in 150 μL medium on a 96-well cell culture plate and incubated at 37° C. overnight before the compounds were added. Compounds were prepared as predilution which was 16 fold concentrated to the final assay concentration. A day after cell seeding, 10 μL of prediluted compounds was added to the cells (1:16 dilution). Treatment of cells with 0.1% DMSO or 1% DMSO (for the two top concentrations of nsl-8) and 1.0E-05 M Staurosporine was served as high control (100% viability) and low control (0% viability), respectively. Measurement of the impact of compounds on cell viability was performed as follows: 5000 cells (A549 and HCC827) or 2500 cells (H1299 and H460) were seeded in the inner wells of 96-well-plates in 150 μL complete medium. Next day, compounds were added to the medium to reach the final concentration and then incubated at 37° C. in 5% or 10% CO2 depending on the medium for 72 h. Subsequently 10 μL Alamar Blue reagent was added and fluorescence at 590 nm was measured after 5 h incubation at 37° C. in 5% CO2 using a fluorometer.
# Raw data were converted into percent cell viability relative to high control (solvent 0.1% DMSO or 1% DMSO for the two top concentrations of drug nsl-8) and low control (1.0E-05 M Staurosporine), which were set to 100% and 0%, respectively.
# HCC827 = assay: 3D cell proliferation assay (soft agar), HCC827; settings: Homo sapiens, 3D soft agar
# Experimental: (§1) Drug nsl-8 was further subjected to a 3D cell proliferation assay for assessing its potential in inhibiting the growth of NSCLC tumors. The same four NSCLC cell lines used in 2D proliferation assays were grown in soft agar and the drug was added after the agar has solidified. The drug added cells were then incubated several days until colonies have formed in the solvent control. Subsequently, Alamar Blue which was a cell viability reagent was added and the corresponding fluorescence released was measured as an indirect quantification of colony growth in soft agar.
# (§2) For each cell line, some 96 well culture plates were prepared. 100 μL of the soft agar bottom layer (0.6% final concentration in complete medium) was poured and left to solidify. 50 μL of the soft agar top layer (0.4% final concentration) containing the corresponding cells and cell number were then added on top, solidified and such 96 well plates were incubated overnight at 37° C. in 10% CO2. Next day, drugs were added at indicated final concentrations into the inner wells of the plate. Subsequently, the assays were incubated in cell culture incubators for the indicated period of time. Finally, the assays were developed using Alamar Blue and upon 3-5 h of incubation at 37 ° C. fluorescence intensity was determined (excitation: 560 nm, emission: 590 nm). […]
# A549 = assay: 3D cell proliferation assay (soft agar), A549; settings: Homo sapiens, 3D soft agar
# Experimental: as §1, §2
# H460 [2] = assay: 3D cell proliferation assay (soft agar), H460; settings: Homo sapiens, NCI-H460, 3D soft agar
# Experimental: as §1, §2
compound,measurement,setting,value
"COc1ccc(-c2ccc3cc(C(=O)O)ccc3c2)cc1C12CC3CC(CC(C3)C1)C2 [nsl-8, 6-[3-(1-adamantyl)-4-methoxyphenyl]-2-naphthalenecarboxylic acid]",IC50,H460 [1],2 µM
same,IC50,HCC827,7.2 µM
same,IC50,A549,0.99 µM
same,IC50,H460 [2],4.9 µM
